Reference: publication PMC6160541 (Frontiers in Chemistry, 2018)

What was measured:
[1] = system: PC3; test: MTT cytotoxicity assay, PC3; assay type: cell-based, human; settings: 48 h
Procedure: (§1) We evaluated the cytotoxicity of 1c-6c, 1d-7d and of the positive control 1a-5a against a panel of human cancer cells using MTT (3-(4,5-dimethylthiazol-2-yl)-2,5-diphenyltetrazolium bromide) assay. The IC50 values were calculated based on three parallel experiments.
(§2) Cisplatin and oxaliplatin were purchased from Yurui Chemical Co. Ltd. (Shanghai, China). All of the other chemicals were obtained from commercial suppliers, such as Alfa […]
(§3) IonSpec QFT mass spectrometer with ESI ionization. 3-(4,5-dimethylthiazol-2-yl) […]
(§4) Phosphate-buffered saline (PBS) contains 137 mM
(§5) NaCl, 2.7 mM KCl, 10 mM Na2HPO4 and 2 mM KH2PO4. Fetal bovine serum (FBS), 0.25% trypsin/EDTA solution, and penicillin-streptomycin solution were purchased from […]
(§6) Invitrogen (Grand Island, NY, USA). […]
(§7) HeLa (cervical carcinoma cell line), MCF-7 (breast gland adenocarcinoma), LNCaP and PC3 (prostatic cancer), HepG-2 (hepatocellular carcinoma), A549 and A549R (lung carcinoma) were used for the MTT […]
(§8) In Vitro Cellular Cytotoxicity Assays
(§9) Cells seeded in 96-well plates were incubated in a 5% CO2 atmosphere in 100 µL of complete medium at 37 ℃ for 24 h. Then, 100 µL of freshly prepared culture medium containing drugs at different concentrations was added and incubated for another 48 h.
(§10) MTT (5 mg/mL, 20 µL) was added and incubated for 3 h. Finally, the medium was removed, and DMSO (150 µL) was added. The absorbance was measured at 570 nm using a Bio-Rad 680 microplate reader. The IC50 values were calculated using GraphPad […]
(§11) Prism software. […]

[2] = system: A549R; test: MTT cytotoxicity assay, A549R (cisplatin-resistant); assay type: cell-based, human; settings: for IC50: MTT, 48 h
Procedure: as §1, §2, §3, §4, §5, §6, §7, §8, §9, §10, §11

[3] = system: A549; test: MTT cytotoxicity assay, A549; assay type: cell-based, human; settings: 48 h
Procedure: as §1, §2, §3, §4, §5, §6, §7, §8, §9, §10, §11

[4] = system: LNCaP; test: MTT cytotoxicity assay, LNCaP; assay type: cell-based, human; settings: 48 h
Procedure: as §1, §2, §3, §4, §5, §6, §7, §8, §9, §10, §11

[5] = system: MCF-7; test: MTT cytotoxicity assay, MCF-7; assay type: cell-based, human; settings: 48 h
Procedure: as §1, §2, §3, §4, §5, §6, §7, §8, §9, §10, §11

[6] = system: HeLa; test: MTT cytotoxicity assay, HeLa; assay type: cell-based, human; settings: 48 h
Procedure: as §1, §2, §3, §4, §5, §6, §7, §8, §9, §10, §11

[7] = system: HepG-2; test: MTT cytotoxicity assay, HepG-2; assay type: cell-based, human; settings: 48 h
Procedure: as §1, §2, §3, §4, §5, §6, §7, §8, §9, §10, §11

[8] = system: MCF-7 cells; test: MTT cytotoxicity with GLUT1 inhibitors (EDG, phloretin) and OCT2 inhibitor (Ctd.) in MCF-7 cells; assay type: cell-based, human; settings: MCF-7
Procedure: For cytotoxicity assays, the GLUT1 inhibitors EDG (1) and phloretin (2), the OCT2 inhibitor Ctd. (cimetidine) (3), and the mixture of EDG and Ctd.(4) were selected to undergo a similar procedure as antitumor activity in vitro. MCF-7 cells were seeded on a 96 well plate in 100 μL of RPMI and were incubated for 24 h at 37°C, and EDG-containing RPMI medium, phloretin-containing RPMI medium and Ctd.-containing RPMI medium were used to render the serial dilution of the concentrated solutions of the platinum compounds, and 100 μL/well was added (resulting in final inhibitor concentrations of 75 mM, 100 μM and 3 mM). The cytotoxicity profiles of the compounds were evaluated using MTT assay. […]
as §8, §9
as §10, with “GraphPad Prism software. Technical repetitions and independent experiments were based on three” for “GraphPad”
For cytotoxicity assays using the GLUT1 inhibitor 4,6-O-ethylidene-α-D-glucose (EDG), phloretin and the OCT2 inhibitor Ctd., a similar procedure as described above was followed except that MCF-7 cells (3500 cells/well) were seeded on a 96 well plate in 100 µL of RPMI and incubated for 24 h at 37 °C. EDG, phloretin and Ctd. containing RPMI medium were used for serial dilution of the concentrated solutions of the platinum compounds, and 100 µL/well were added (resulting in final inhibitor concentrations of 75 mM, 100 µM and 3 mM, respectively). The cytotoxicity profiles of the compounds were evaluated using the MTT assay. […]

[9] = system: human cancer cells; test: MTT cytotoxicity, summary over panel of human cancer cells; assay type: cell-based; settings: range over A549R, LnCaP, PC3
Procedure: as §1
Scheme 9. Synthetic route of 38b. Conditions and reagents: (a) Ac2O and NaOAc; (b) TMSN3, BF3OEt2, and DCM; (c) MeONa and MeOH rt overnight; (d) BnBr, NaH, and DMF overnight; (e) […]
Preparation of 46b and 47b
Compounds 46b (38%) and 47b (45%) were prepared according to the procedure described for compounds 20b and 21b, respectively.
Compound 48b (45%) was prepared according to the procedure described for compound […]
In Vitro Cellular Cytotoxicity Assays […]
MTT (5 mg/mL, 20 µL) was added and incubated for 3 h. […] The absorbance was measured at 570 nm using a Bio-Rad 680 microplate reader. The IC50 values were calculated using GraphPad Prism software. […]
For cytotoxicity assays using the GLUT1 inhibitor 4,6-O-ethylidene-α-D-glucose (EDG), phloretin and the OCT2 inhibitor Ctd., a similar procedure as described above was followed except that MCF-7 cells (3500 cells/well) were seeded on a 96 well plate in 100 µL of RPMI and incubated for 24 h at 37 °C. […] The cytotoxicity profiles of the compounds were evaluated using the MTT assay. […]

## CC(=O)OC[C@H]1O[C@@H](NC(=O)CCC(=O)[O][Pt-2]([NH3+])([NH3+])([OH])([Cl])[Cl])[C@H](OC(C)=O)[C@@H](OC(C)=O)[C@@H]1O[C@H]1O[C@H](COC(C)=O)[C@@H](OC(C)=O)[C@H](OC(C)=O)[C@H]1OC(C)=O [3c]
[1]
  IC50: 1.13 ± 0.45 µM
[2]
  RF: Resistance factor = IC50(A549R)/IC50(A549): 4.33
  IC50: 14.6 ± 1.78 µM
[3]
  IC50: 3.38 ± 1.49 µM
[4]
  IC50: > 100 µM
[5]
  IC50: 27.2 ± 1.56 µM
[6]
  IC50: 0.91 ± 0.54 µM
[7]
  IC50: 3.27 ± 1.67 µM

## N.N.O=C(CCC(=O)[O][Pt]([OH])([Cl])[Cl])NCCO[C@H]1O[C@H](CO)[C@@H](O)[C@H](O)[C@@H]1O [3d]
[1]
  IC50: > 100 µM
[2]
  IC50: > 100 µM
[3]
  IC50: 1.9 ± 2.78 µM
[4]
  IC50: > 100 µM
[5]
  IC50: 45.1 ± 0.77 µM
[6]
  IC50: 3.01 ± 0.67 µM
[7]
  IC50: 13.2 ± 1.38 µM

## O=C1[O][Pt]2([NH][C@@H]3CCCC[C@H]3[NH]2)[O]C1=O [3a, oxaliplatin, reference compound]
[1]
  IC50: 39.7 ± 0.76 µM
[8]
  effect of EDG and phloretin on IC50 values: not greatly different
[9]
  IC50: 16.8 to 39.7 µM
[2]
  RF: Resistance factor = IC50(A549R)/IC50(A549): 3.94
  IC50: 39.7 ± 0.69 µM
[3]
  IC50: 10.1 ± 1.2 µM
[4]
  IC50: 16.8 ± 0.34 µM
[5]
  IC50: 5.22 ± 2.78 µM
[6]
  IC50: 3.96 ± 0.75 µM
[7]
  IC50: 6.64 ± 1.79 µM

## O=C(CCC(=O)[O][Pt-2]12([OH])([NH2+][C@@H]3CCCC[C@H]3[NH2+]1)[O]C(=O)C(=O)[O]2)NCCCO[C@@H]1O[C@H](CO)[C@H](O)[C@H](O)[C@H]1O [5d]
[1]
  IC50: 6.27 ± 1.45 µM
[2]
  IC50: 5.67 ± 1.69 µM
[3]
  IC50: 2.29 ± 1.78 µM
[4]
  IC50: 12 ± 0.79 µM
[5]
  IC50: 0.35 µM
[6]
  IC50: 0.58 ± 0.78 µM
[7]
  IC50: 1.77 ± 1.39 µM

## CC(=O)OC[C@H]1O[C@@H](O[C@H]2[C@H](OC(C)=O)[C@@H](OC(C)=O)[C@H](NC(=O)CCC(=O)[O][Pt-2]([NH3+])([NH3+])([OH])([Cl])[Cl])O[C@@H]2COC(C)=O)[C@H](OC(C)=O)[C@@H](OC(C)=O)[C@H]1OC(C)=O [1c]
[1]
  IC50: > 100 µM
[2]
  RF: Resistance factor = IC50(A549R)/IC50(A549): 0.12
  IC50: 4.26 ± 1.9 µM
[3]
  IC50: 36.4 ± 1.39 µM
[4]
  IC50: > 100 µM
[5]
  IC50: 24.2 ± 1.44 µM
[6]
  IC50: 18.2 ± 1.01 µM
[7]
  IC50: 11.6 ± 1.58 µM

## N.N.[Cl][Pt][Cl] [1a, cisplatin, reference compound]
[1]
  IC50: 22.9 ± 1.45 µM
[8]
  effect of EDG and phloretin on IC50 values: not greatly different
[9]
  IC50: 16.8 to 39.7 µM
[2]
  IC50: 35.8 ± 1.69 µM
[3]
  IC50: 10.8 ± 1.98 µM
[4]
  IC50: 23.8 ± 0.89 µM
[5]
  IC50: 2.28 ± 0.56 µM
[6]
  IC50: 0.8 ± 0.93 µM
[7]
  IC50: 3.94 ± 0.39 µM

## CC(=O)OC[C@H]1O[C@@H](NC(=O)CCC(=O)[O][Pt-2]23([OH])([NH2+][C@@H]4CCCC[C@H]4[NH2+]2)[O]C(=O)C(=O)[O]3)[C@H](OC(C)=O)[C@@H](OC(C)=O)[C@H]1OC(C)=O [5c]
[1]
  IC50: 7.45 ± 0.56 µM
[2]
  RF: Resistance factor = IC50(A549R)/IC50(A549): 4.24
  IC50: 74.1 ± 1.67 µM
[3]
  IC50: 17.5 ± 0.89 µM
[4]
  IC50: 22.1 ± 1.45 µM
[5]
  IC50: 17.89 ± 0.12 µM
[6]
  IC50: 32.2 ± 0.34 µM
[7]
  IC50: > 100 µM
